Assay [1] addresses T1, GdpP (Staphylococcus aureus, UniProt A0A0H2XJV8).
T1 construct: gene SAUSA300_0014
Description: radiolabelled c-di-AMP hydrolysis, TLC. It is filed as biochemical.

For assay [2], the target named is T2, Pde2 (Staphylococcus aureus, UniProt A0A0H2XFX6).
T2 construct: gene SAUSA300_1650
Briefly: radiolabelled pApA hydrolysis, TLC. It is filed as biochemical.

Results on two molecules are retold here after publication PMC5207132, “New Insights into the Cyclic Di-adenosine Monophosphate (c-di-AMP) Degradation Pathway and the Requirement of the Cyclic Dinucleotide for Acid Stress Resistance in Staphylococcus aureus” (The Journal of Biological Chemistry, 2016).

T2 sequence (A0A0H2XFX6 entry or part of it): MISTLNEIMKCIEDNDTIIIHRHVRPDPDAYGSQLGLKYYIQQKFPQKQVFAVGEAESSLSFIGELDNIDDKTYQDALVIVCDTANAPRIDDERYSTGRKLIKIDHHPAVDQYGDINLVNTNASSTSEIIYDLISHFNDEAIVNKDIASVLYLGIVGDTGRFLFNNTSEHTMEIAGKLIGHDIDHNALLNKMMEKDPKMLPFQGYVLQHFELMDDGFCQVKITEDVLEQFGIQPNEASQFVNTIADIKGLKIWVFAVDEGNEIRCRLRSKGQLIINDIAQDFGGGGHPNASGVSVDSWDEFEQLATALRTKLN
T1 sequence (A0A0H2XJV8 entry or part of it): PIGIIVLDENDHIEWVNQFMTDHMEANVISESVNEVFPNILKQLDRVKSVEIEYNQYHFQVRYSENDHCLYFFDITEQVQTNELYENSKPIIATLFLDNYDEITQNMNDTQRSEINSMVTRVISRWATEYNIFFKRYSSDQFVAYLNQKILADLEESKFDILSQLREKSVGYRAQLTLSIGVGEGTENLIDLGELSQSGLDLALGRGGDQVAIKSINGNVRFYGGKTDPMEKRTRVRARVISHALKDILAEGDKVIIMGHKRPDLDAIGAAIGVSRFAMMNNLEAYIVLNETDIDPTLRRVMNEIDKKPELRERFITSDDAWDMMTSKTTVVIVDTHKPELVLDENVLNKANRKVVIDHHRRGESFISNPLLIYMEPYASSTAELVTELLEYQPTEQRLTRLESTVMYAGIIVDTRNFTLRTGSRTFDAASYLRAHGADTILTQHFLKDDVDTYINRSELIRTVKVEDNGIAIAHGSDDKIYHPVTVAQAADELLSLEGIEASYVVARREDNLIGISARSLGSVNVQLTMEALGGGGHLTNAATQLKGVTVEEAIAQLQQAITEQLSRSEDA

With `Nc1ncnc2c1ncn2[C@@H]1O[C@H](COP(=O)(O)O[C@H]2[C@@H](O)[C@H](n3cnc4c(N)ncnc43)O[C@@H]2COP(=O)(O)O)[C@@H](O)[C@H]1O` [pApA], 78 ± 2.34 µM corresponded to half-maximal inhibition in assay [1] (IC50).
`Nc1nc2c(ncn2[C@@H]2O[C@H](COP(=O)(O)OP(=O)(O)O)[C@@H](OP(=O)(O)OP(=O)(O)O)[C@H]2O)c(=O)[nH]1` [ppGpp] gave a half-inhibitory concentration (IC50) in assay [2] of 139 ± 5.6 µM.

The IC50 is the midpoint of a concentration-inhibition curve. Read a low IC50 as inhibition by little substance.
